pEC50, pIC50: −log10 of the molar value.
Experiments:
[1] = molecular target: recombinant human prostanoid EP4 receptor (Homo sapiens (Human), UniProt P35408); experiment: Human prostanoid EP4 receptor binding assay ([3H]PGE2 displacement); conditions: HEK-293(T) membranes, 0.5 nM [3H]PGE2, 120 min at 22° C.; NC: not calculable; read-out: In vitro potency EP4 (h) IC50
Description: Test 1.1: Human Prostanoid EP4 Receptor Binding Assay
Cell membrane homogenate from Human embryonic kidney HEK-293(T) cells expressing recombinant human prostanoid EP4 receptor was used to perform Prostanoid receptor radioligand binding assays.
The competition reaction was initiated by incubation of membrane protein homogenate (20 μg protein) for 120 min at 22° C. with 0.5 nM [^3H]PGE2 ligand in the absence or presence of the test compound in a buffer containing 10 mM MES/KOH (pH 6.0), 10 mM MgCl2 and 1 mM EDTA.
Non-specific binding was determined in the presence of 10 μM PGE2 (the corresponding non-radioactive prostanoid). Affinity of the compound binding to hEP4 receptor was measured by displacement of the radiolabeled ligand in the presence of varying doses of tested compound.
Incubations were terminated by rapid filtration under vacuum through glass fiber filters (GF/B, Packard) presoaked with 0.3% PEI and washed several times with ice-cold 50 mM Tris-HCl using a 96-sample cell harvester (Unifilter, Packard).
The filters were dried and the residual radioactivity bound to the individual filters determined with addition of scintillation cocktail (Microscint 0, Packard) by a scintillation counter (Topcount, Packard).
The results were expressed as a percent inhibition of the control radioligand specific binding.
The standard reference compound PGE2, was tested in at several concentrations to obtain a competition curve to determined IC50.
(§1) Analysis and Expression of Results
The specific ligand binding to the receptors is defined as the difference between the total binding and the nonspecific binding determined in the presence of an excess of unlabelled ligand. The results are expressed as a percent of control specific binding ((measured specific binding/control specific binding)×100) obtained in the presence of the test compounds. The IC50 values (concentration causing a half-maximal inhibition of control specific binding) and Hill coefficients (nH) were determined by non-linear regression analysis of the competition curves generated with mean replicate values using Hill equation curve fitting (Y=D+[(A−D)/(1+(C/C50)nH)], where Y=specific binding, D=minimum specific binding, A=maximum specific binding, C=compound concentration, C50=IC50, and nH=slope factor). This analysis was performed using a software developed at Cerep (Hill software) and validated by comparison with data generated by the commercial software SigmaPlot® 4.0 for Windows® (© 1997 by SPSS Inc.). The inhibition constants (Ki) were calculated using the Cheng Prusoff equation (Ki=IC50/(1+(L/KD)), where L=concentration of radioligand in the assay, and KD=affinity of the radioligand for the receptor). A scatchard plot is used to determine the Kd.

[2] = molecular target: recombinant human prostanoid EP2 receptor (Homo sapiens (Human), UniProt P43116); experiment: Human prostanoid EP2 receptor cellular functional assay (cAMP, HTRF); format: cell-based; conditions: for pEC50: CHO cells expressing recombinant human EP2, cAMP by HTRF, 30 min, 37° C., read-out: In vitro functional assay EP2 (h) EC50; for In vitro functional assay EP2 (h) % response: percent of control specific agonist response (10 μM PGE2)
Description: Test 1.2: Human Prostanoid EP2 Receptor Cellular Functional Assay
Human CHO cells expressing the recombinant human prostanoid EP2 receptor were suspended in assay medium (HBSS buffer (Invitrogen) containing 20 mM HEPES (pH7.4) and 500 μM isobutyl-methylxanthine IBMX) and plated out to yield approximately 1×10^4 cells/well in a 96-well. Following this, cells were incubated with agonists for 30 min in the presence of the test compounds. For stimulated control measurements, separate assay wells contain 10 μM PGE2 (control specific agonist). All incubations were carried out at 37° C. in a 5% CO2 atmosphere. Following incubation, the amount of cAMP in each well was determined by HTRF method. The cells are lysed and the fluorescence acceptor (D2-labeled cAMP) and fluorescence donor (anti-cAMP antibody labeled with europium cryptate) are added. After 60 min at room temperature, the fluorescence transfer is measured at λ ex=337 nm and λ em=620 and 665 nm using a microplate reader (Rubystar, BMG).
The cAMP concentration is determined by dividing the signal measured at 665 nm by that measured at 620 nm (ratio).
The standard reference agonist PGE2 was tested at several concentrations to generate a concentration-response curve to determined EC50.
as §1
The results are expressed as a percent of control specific agonist response ((measured specific response/control specific agonist response)×100) obtained in the presence of the test compounds. The EC50 values (concentration producing a half-maximal specific response) were determined by non-linear regression analysis of the concentration-response curves generated with mean replicate values using Hill equation curve fitting (Y=D+[(A−D)/(1+(C/C50)nH)], where Y=specific response, D=minimum specific response, A=maximum specific response, C=compound concentration, and C50=EC50 and nH=slope factor). This analysis was performed using a software developed at Cerep (Hill software) and validated by comparison with data generated by the commercial software SigmaPlot® 4.0 for Windows® (© 1997 by SPSS Inc.).

Chain of recombinant human prostanoid EP4 receptor (P35408 whole entry): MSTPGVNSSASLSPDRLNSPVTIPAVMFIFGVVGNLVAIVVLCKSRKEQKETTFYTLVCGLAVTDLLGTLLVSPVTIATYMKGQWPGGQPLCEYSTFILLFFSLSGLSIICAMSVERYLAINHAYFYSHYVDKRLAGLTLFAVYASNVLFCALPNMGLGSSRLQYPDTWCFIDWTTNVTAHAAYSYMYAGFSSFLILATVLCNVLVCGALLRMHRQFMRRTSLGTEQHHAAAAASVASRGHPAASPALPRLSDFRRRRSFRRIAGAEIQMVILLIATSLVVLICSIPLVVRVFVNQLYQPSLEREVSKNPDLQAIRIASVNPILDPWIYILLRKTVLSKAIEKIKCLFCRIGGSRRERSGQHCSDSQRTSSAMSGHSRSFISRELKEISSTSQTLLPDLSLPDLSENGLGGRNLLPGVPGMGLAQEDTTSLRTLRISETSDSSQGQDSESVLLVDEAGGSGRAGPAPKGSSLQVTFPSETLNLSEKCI
Chain of recombinant human prostanoid EP2 receptor (P43116 whole entry): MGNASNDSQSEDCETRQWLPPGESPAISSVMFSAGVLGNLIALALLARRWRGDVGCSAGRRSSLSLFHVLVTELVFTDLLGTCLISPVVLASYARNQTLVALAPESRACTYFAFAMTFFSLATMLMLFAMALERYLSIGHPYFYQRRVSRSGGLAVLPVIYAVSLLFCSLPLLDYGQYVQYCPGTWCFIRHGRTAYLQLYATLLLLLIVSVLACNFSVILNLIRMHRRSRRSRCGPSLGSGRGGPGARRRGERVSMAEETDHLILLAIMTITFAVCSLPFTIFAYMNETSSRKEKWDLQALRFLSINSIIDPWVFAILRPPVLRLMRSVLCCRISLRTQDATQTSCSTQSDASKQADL

Compound	pIC50 [1]	pEC50 [2]	In vitro functional assay EP2 (h) % response [2] [%]
O=C(O)COc1ccc(Cl)c(NCc2cc(-c3cccc(F)c3)ccc2F)c1Cl [I(r), 2-[2,4-Dichloro-3-[[2-fluoro-5-(3-fluorophenyl)phenyl]methylamino]phenoxy]acetic acid]	< 6.52	7.35	78
O=C(O)COc1ccc(Cl)c(NCc2cc(-c3cccc(F)c3)ccc2F)c1F [I(k), 2-[4-Chloro-2-fluoro-3-[[2-fluoro-5-(3-fluorophenyl)phenyl]methylamino]phenoxy]acetic acid]	< 6.52	7.14	77
Cc1cc(CNc2c(F)ccc(OCC(=O)O)c2F)cc(-c2cccc(F)c2)c1 [I(d), 2-[2,4-Difluoro-3-[[3-(3-fluorophenyl)-5-methyl-phenyl]methylamino]phenoxy]acetic acid]		7.46	74
Cc1cc(OCC(=O)O)c(C)c(NCc2cc(-c3cccc(F)c3)ccc2F)c1F [I(ac), 2-[4-fluoro-3-[[2-fluoro-5-(3-fluorophenyl)phenyl]methylamino]-2,5-dimethyl-phenoxy]acetic acid]		7.74	117
O=C(O)COc1ccc(F)c(NCc2cc(F)cc(-c3cccc(F)c3)c2)c1F [I(n), 2-[2,4-Difluoro-3-[[3-fluoro-5-(3-fluorophenyl)phenyl]methylamino]phenoxy]acetic acid]		7.28	86
Cc1cc(-c2cccc(F)c2)cc(CNc2c(F)ccc(OCC(=O)O)c2F)c1O [I(u), 2-[2,4-Difluoro-3-[[5-(3-fluorophenyl)-2-hydroxy-3-methyl-phenyl]methylamino]phenoxy]acetic acid]		8.05	78
Cc1c(-c2cccc(F)c2)ccc(F)c1CNc1c(F)ccc(OCC(=O)O)c1F [I(y), 2-[2,4-difluoro-3-[[6-fluoro-3-(3-fluorophenyl)-2-methyl-phenyl]methylamino]phenoxy]acetic acid]		6.89	62
COc1cc(CNc2c(F)ccc(OCC(=O)O)c2F)cc(-c2cccc(F)c2)c1 [I(q), 2-[2,4-Difluoro-3-[[3-(3-fluorophenyl)-5-methoxy-phenyl]methylamino]phenoxy]acetic acid]		7.74	70
O=C(O)COc1cccc(CN(Cc2ccc(-n3cccn3)cc2)S(=O)(=O)c2cccnc2)c1 [CP-544326, reference compound]		7.34	72
Cc1cc(CNc2c(F)ccc(OCC(=O)O)c2C)c(F)c(-c2cccc(F)c2)c1 [I(ai), 2-[4-fluoro-3-[[2-fluoro-3-(3-fluorophenyl)-5-methyl-phenyl]methylamino]-2-methyl-phenoxy]acetic acid]		7.46	80
Cc1c(OCC(=O)O)ccc(F)c1NCc1cc(O)cc(-c2cccc(F)c2)c1 [I(ah), 2-[4-fluoro-3-[[3-(3-fluorophenyl)-5-hydroxy-phenyl]methylamino]-2-methyl-phenoxy]acetic acid]		8.10	74

The remaining lines, values ahead:

pIC50 [1]	pEC50 [2]	In vitro functional assay EP2 (h) % response [2] [%]	Compound
< 6.52	8.70	101	Cc1cc(-c2cccc(F)c2)cc(CNc2c(F)ccc(OCC(=O)O)c2C)c1F [I(ad), 2-[4-fluoro-3-[[2-fluoro-5-(3-fluorophenyl)-3-methyl-phenyl]methylamino]-2-methyl-phenoxy]acetic acid]
< 6.52	9.05	70	COc1c(C)cc(-c2cccc(F)c2)cc1CNc1c(C)ccc(OCC(=O)O)c1C [I(al), 2-[3-[[5-(3-fluorophenyl)-2-methoxy-3-methyl-phenyl]methylamino]-2,4-dimethyl-phenoxy]acetic acid]
< 6.52	> 9.00	85	Cc1cc(-c2cccc(F)c2)cc(CNc2c(C)ccc(OCC(=O)O)c2C)c1F [I(ag), 2-[3-[[2-fluoro-5-(3-fluorophenyl)-3-methyl-phenyl]methylamino]-2,4-dimethyl-phenoxy]acetic acid]
< 6.52	8.22	91	Cc1cc(-c2cccc(F)c2)cc(CNc2c(F)ccc(OCC(=O)O)c2C)c1C [I(at), 2-[4-fluoro-3-[[5-(3-fluorophenyl)-2,3-dimethyl-phenyl]methylamino]-2-methyl-phenoxy]acetic acid]
< 6.52	8.52	97	Cc1c(F)cc(-c2cccc(F)c2)cc1CNc1c(F)ccc(OCC(=O)O)c1F [I(aa), 2-[2,4-difluoro-3-[[3-fluoro-5-(3-fluorophenyl)-2-methylphenyl]methylamino]phenoxy]acetic acid]
< 6.52	8.52	80	Cc1ccc(OCC(=O)O)c(C)c1NCc1cc(-c2cccc(F)c2)cc(F)c1C [I(aw), 2-[3-[[3-fluoro-5-(3-fluorophenyl)-2-methyl-phenyl]methylamino]-2,4-dimethyl-phenoxy]acetic acid]
	8.52	87	Cc1cc(CNc2c(C)ccc(OCC(=O)O)c2C)c(F)c(-c2cccc(F)c2)c1 [I(am), 2-[3-[[2-Fluoro-3-(3-fluorophenyl)-5-methyl-phenyl]methylamino]-2,4-dimethyl-phenoxy]acetic acid]
	8.10	130	Cc1cc(-c2cc(F)cc(F)c2)cc(CNc2c(F)ccc(OCC(=O)O)c2F)c1C [I(ar), 2-[3-[[5-(3,5-difluorophenyl)-2,3-dimethyl-phenyl]methylamino]-2,4-difluoro-phenoxy]acetic acid]
	8.30	70	COc1c(C)cc(-c2cccc(F)c2)cc1CNc1c(F)ccc(OCC(=O)O)c1C [I(af), 2-[4-fluoro-3-[[5-(3-fluorophenyl)-2-methoxy-3-methyl-phenyl]methylamino]-2-methyl-phenoxy]acetic acid]
< 6.52	8.70	113	Cc1cc(-c2cccc(F)c2)cc(CNc2c(C)ccc(OCC(=O)O)c2C)c1C [I(ak), 2-[3-[[5-(3-fluorophenyl)-2,3-dimethyl-phenyl]methylamino]-2,4-dimethyl-phenoxy]acetic acid]
